Experimental data reported in DBAASP.
In brackets after ≈: the same amount, converted by molar mass. One block for each compound: values may come before it.

How the values were obtained:
Assay in all cases: ≥ marks a high value that may be exact or a test limit, other limits are often not marked, values filed in µg/mL are converted to µM
[1] = test system: Candida albicans KCTC 7270
[2] = test system: Trichosporon beigelii KCTC 7707
[3] = test system: Pseudomonas aeruginosa 4007
[4] = test system: Escherichia coli CCARM 1238
[5] = test system: Staphylococcus aureus CCARM 3518
[6] = test system: Escherichia coli CCARM 1229
[7] = test system: Pseudomonas aeruginosa 4891
[8] = test system: Staphylococcus aureus CCARM 3090
[9] = test system: Salmonella typhimurium KCTC 1926
[10] = test system: Enterococcus faecium ATCC 51559
[11] = test system: Enterococcus faecium KCCM 12118
[12] = test system: Escherichia coli KCTC 1682
[13] = test system: Pseudomonas aeruginosa KCTC 1637
[14] = test system: Staphylococcus aureus KCCM 40510
[15] = test system: Staphylococcus epidermidis KCTC 1917
[16] = test system: Enterococcus faecalis KCCM 29212
[17] = test system: Bacillus subtilis KCTC 3068
[18] = test system: Enterococcus faecalis ATCC 51575
[19] = test system: Staphylococcus aureus KCTC 1621
[20] = test system: Candida parapsilosis ATCC 20224
[21] = test system: Candida albicans ATCC 2048
[22] = test system: Candida glabrata ATCC 90525
[23] = test system: Candida tropicalis ATCC 20240
Candida krusei ATCC 6258 = test system: Candida krusei ATCC 6258
[24] = test system: Staphylococcus aureus ATCC 25923
[25] = test system: Bacillus megaterium TISTR 067
[26] = test system: Candida albicans TISTR 5554
[27] = test system: Enterococcus faecalis TISTR 927
[28] = test system: Salmonella typhimurium TISTR 1472
[29] = test system: Bacillus cereus TISTR 1449
[30] = test system: Aeromonas hydrophila TISTR 1321
[31] = test system: Salmonella enterica subsp. enterica serovar Derby DMST 16881
[32] = test system: Bacillus subtilis TISTR 1248
[33] = test system: Staphylococcus aureus TISTR 746
[34] = test system: Escherichia coli DH5alpha
[35] = test system: Edwardsiella tarda DMST 38217
[36] = test system: Pseudomonas aeruginosa TISTR 1287
[37] = test system: Escherichia coli ATCC 25922
[38] = test system: Pseudomonas aeruginosa ATCC 27853
[39] = test system: Enterobacter cloacae ATCC 49141
Bacillus megaterium Bm11 = test system: Bacillus megaterium Bm11
[40] = test system: Staphylococcus aureus ATCC 6538P
[41] = test system: Enterococcus faecalis ATCC 19433
[42] = test system: Klebsiella aerogenes ATCC 35029
[43] = test system: Streptococcus pyogenes ATCC 49399
[44] = test system: Pseudomonas aeruginosa PA14
Escherichia coli D31 = test system: Escherichia coli D31
Escherichia coli SBS 363 = test system: Escherichia coli SBS 363
[45] = test system: Enterobacter cloacae beta-12

- MIC [1]: ≥ 32 µM
- MIC [2]: ≥ 32 µM
- MIC [3]: 2 µM (≈ 5.54 µg/mL)
- MIC [4]: 4 µM (≈ 11.1 µg/mL)
- MIC [5]: 4 µM (≈ 11.1 µg/mL)
- MIC [6]: 4 µM (≈ 11.1 µg/mL)
- MIC [7]: 4 µM (≈ 11.1 µg/mL)
- MIC [8]: 8 µM (≈ 22.2 µg/mL)
Compound: CC[C@H](C)[C@H](NC(=O)[C@H](C)NC(=O)[C@H](CCC(=O)O)NC(=O)[C@H](Cc1cnc[nH]1)NC(=O)[C@@H](NC(=O)[C@H](CCCCN)NC(=O)[C@H](CCC(N)=O)NC(=O)[C@H](Cc1ccccc1)NC(=O)[C@@H](NC(=O)[C@H](CCCCN)NC(=O)[C@H](CCCCN)NC(=O)[C@H](CC(C)C)NC(=O)[C@H](C)NC(=O)[C@H](CC(N)=O)NC(=O)[C@H](CC(C)C)NC(=O)CN)C(C)C)[C@@H](C)CC)C(=O)N[C@@H](CCCCN)C(=O)N[C@@H](CCCCN)C(=O)N[C@H](C(=O)N[C@@H](CC(N)=O)C(=O)N[C@@H](CC(N)=O)C(=O)N[C@@H](Cc1cnc[nH]1)C(=O)N[C@H](C(=O)N[C@@H](CCC(N)=O)C(N)=O)C(C)C)[C@@H](C)CC [GLNALKKVFQKIHEAIKKINNHVQ]

- MIC [9]: 1.87 µM (≈ 2 µg/mL)
- MIC [10]: 1.87 µM (≈ 2 µg/mL)
- MIC [11]: 3.75 µM (≈ 4 µg/mL)
- MIC [12]: 3.75 µM (≈ 4 µg/mL)
- MIC [13]: 3.75 µM (≈ 4 µg/mL)
- MIC [14]: 3.75 µM (≈ 4 µg/mL)
- MIC [15]: 1.87 µM (≈ 2 µg/mL)
- MIC [16]: 3.75 µM (≈ 4 µg/mL)
- MIC [17]: 3.75 µM (≈ 4 µg/mL)
- MIC [18]: 7.49 µM (≈ 7.99 µg/mL)
- MIC [19]: 3.75 µM (≈ 4 µg/mL)
Compound: CC[C@H](C)[C@H](NC(=O)[C@H](CC(C)C)NC(=O)[C@H](CC(C)C)NC(=O)[C@@H](N)CC(C)C)C(=O)N[C@@H](C)C(=O)N[C@@H](CC(C)C)C(=O)N[C@@H](CCCN=C(N)N)C(=O)N[C@@H](CCCCN)C(=O)N[C@@H](CCCCN)C(N)=O [LLLIALRKK]

- MIC [20]: ≥ 320 µM
- MIC [21]: ≥ 380 µM
- MIC [22]: ≥ 280 µM
- MIC [23]: ≥ 410 µM
- MIC (Candida krusei ATCC 6258): ≥ 380 µM
Compound: CC(C)C[C@H](NC(=O)[C@H](C)NC(=O)[C@H](CC(C)C)NC(=O)[C@H](CC(=O)O)NC(=O)[C@H](CCC(N)=O)NC(=O)[C@@H](N)CC(C)C)C(=O)N[C@@H](CCC(N)=O)C(=O)NCC(=O)N[C@@H](C)C(=O)N[C@@H](CCCCN)C(=O)N[C@@H](CCC(=O)O)C(=O)N[C@@H](CCCN=C(N)N)C(=O)N[C@@H](C)C(=O)N[C@@H](Cc1cnc[nH]1)C(=O)N[C@@H](CCC(N)=O)C(=O)N[C@@H](CCC(N)=O)C(=O)O [LQDLALQGAKERAHQQ]

- MIC [24]: 225 µM (≈ 400 µg/mL)
- MIC [25]: 7.03 µM (≈ 12.5 µg/mL)
- MIC [26]: ≥ 225 µM
- MIC [27]: ≥ 56.2 µM
- MIC [28]: ≥ 225 µM
- MIC [29]: ≥ 225 µM
- MIC [30]: ≥ 225 µM
- MIC [31]: ≥ 225 µM
- MIC [32]: 14.1 µM (≈ 25 µg/mL)
- MIC [33]: ≥ 225 µM
- MIC [34]: ≥ 112 µM
- MIC [35]: ≥ 225 µM
- MIC [36]: ≥ 225 µM
- MIC [37]: 112 µM (≈ 200 µg/mL)
Compound: CC(C)C[C@H](NC(=O)[C@H](CCCCN)NC(=O)[C@@H](NC(=O)[C@H](CO)NC(=O)[C@H](Cc1ccccc1)NC(=O)[C@H](CC(C)C)NC(=O)[C@H](Cc1c[nH]c2ccccc12)NC(=O)[C@@H](NC(=O)[C@H](CS)NC(=O)[C@H](CC(N)=O)NC(=O)[C@@H](N)CCCN=C(N)N)[C@@H](C)O)[C@@H](C)O)C(=O)N[C@@H](CCCCN)C(=O)N[C@@H](CC(C)C)C(=O)N1CCC[C@H]1C(=O)N[C@@H](C)C(=O)O [RNCTWLFSTKLKLPA]

- MIC [38]: > 80 µM
- MIC [39]: ≥ 80 µM
- MIC (Bacillus megaterium Bm11): 1.25 µM (≈ 1.62 µg/mL)
- MIC [40]: ≥ 80 µM
- MIC [41]: ≥ 80 µM
- MIC [37]: 80 µM (≈ 104 µg/mL)
- MIC [42]: ≥ 80 µM
- MIC [43]: 10 µM (≈ 13 µg/mL)
Compound: CC[C@H](C)[C@H](NC(=O)[C@H](Cc1c[nH]c2ccccc12)NC(=O)[C@H](Cc1ccccc1)NC(=O)[C@@H]1CCCN1C(=O)[C@H](CCCN=C(N)N)NC(=O)[C@@H](N)CCCN=C(N)N)C(=O)N[C@H](C(=O)N[C@@H](CCCN=C(N)N)C(=O)N[C@@H](CCCN=C(N)N)C(N)=O)[C@@H](C)CC [RRPFWIIRR]

- MIC [44]: 4.6 µM (≈ 7.81 µg/mL)
- MIC [38]: 1.15 µM (≈ 1.95 µg/mL)
- MIC (Escherichia coli D31): 4.6 µM (≈ 7.81 µg/mL)
- MIC (Escherichia coli SBS 363): 4.6 µM (≈ 7.81 µg/mL)
- MIC [45]: 2.3 µM (≈ 3.9 µg/mL)
Compound: CC[C@H](C)[C@H](NC(=O)[C@H](CC(=O)O)NC(=O)[C@H](CC(=O)O)NC(=O)[C@H](CC(N)=O)NC(=O)CNC(=O)[C@H](CO)NC(=O)[C@H](Cc1ccccc1)NC(=O)[C@H](CC(=O)O)NC(=O)[C@@H](NC(=O)CNC(=O)[C@@H](N)C(C)C)[C@@H](C)O)C(=O)N[C@@H](CO)C(=O)N[C@@H](CC(=O)O)C(=O)N[C@H](C(=O)N[C@@H](CCC(N)=O)C(=O)N[C@@H](CCCCN)C(=O)O)C(C)C [VGTDFSGNDDISDVQK]
